Data reported in patent publication US8946201B2, “Methods for inhibiting TGF-β” (Saint Louis University, priority 2007, dated 2015).
pEC50: −log10 of the molar value.

Assays:
PAI-1 expression = test: TGF-β1-induced PAI-1 expression, Northern blot, Mv1Lu cells; assay type: cell-based, mink; details: Mv1Lu cells
Protocol: (A, B, C, D, E, F) Cells were treated with 50 μg/ml cholesterol (A, B, C, D) and 50 μg/ml LDL (D) at 37° C. for 1 hr or with 1 μM fluvastatin or lovastatin (E) or several concentrations of fluvastatin (F) at 37° C. for 16 hr and then further incubated with increasing concentrations (as indicated) of TGF-β1 (A, B, C, E) or 50 pM TGF-β1 (D,F) for 2 hr. Northern blot analysis of PAI-1 and G3PDH was performed. A representative of a total of three analyses is shown (a). The relative intensities of the transcripts were quantified with a PhosphoImager. The ratio of the relative intensities of PAI-1 and G3PDH transcripts in cells treated without TGF-β1 and cholesterol, LDL or statins on the blot was taken as 1 fold or 100% of PAI-1 expression. The quantitative data from three independent analyses is shown (b). […] (G) Mv1Lu cells stably expressing a luciferase reporter gene driven by the PAI-1 promoter (MLECs-clone 32) were treated with increasing concentrations (as indicated) of cholesterol at 37 EC for 1 hr (a) or with 1 μM lovastatin at 37° C. for 16 hr (b) and then further incubated with 50 pM TGF-β for 7 hr. The luciferase activity in cells treated without cholesterol was taken as 100% (a). […] (H) Cells were incubated with 0.0625 and 0.125 pM TGF-β1 in the presence of increasing concentrations of cholesterol, as indicated. […] The experiments were carried out in triplicate.

TβR-I and TβR-II [1] = test: 125I-TGF-β1 affinity labeling, Mv1Lu cells; assay type: cell-based, mink; details: 1 μM, 37° C. 16 hr; Mv1Lu cells; 0.88 untreated
Protocol: (A) Mv1Lu cells were treated with 50 μg/ml cholesterol at 37° C. After several time periods, as indicated, ^125I-TGF-β1-affinity labeling was performed at 0° C. ^125I-TGF-β1 affinity-labeled TGF-β receptors were analyzed by 7.5% SDS-PAGE and autoradiography (a) and quantified with a PhosphoImager. The bracket indicates the locations of ^125I-TGF-β1 affinity-labeled TβR-I and TβR-II. The ratio of ^125I-TGF-β1 binding to TβR-II and TβR-I is plotted against incubation time (b).
(§1) (B, C, D, E) Cells were treated with increasing concentrations of cholesterol in the presence (C) and absence (B, D, E) of 0.2% β-CD, as indicated. After 1 hr at 37° C., ^125I-TGF-β1 affinity labeling of TβR-I and TβR-II in cells was performed at 0° C. ^125I-TGF-β1 affinity-labeled TβR-I and TβR-II were analyzed by 7.5% SDS-PAGE and autoradiography or quantified with a PhosphoImager. A representative of a total of three analyses is shown (top). The bracket indicates the locations of ^125I-TGF-β affinity-labeled TβR-I and TβR-II. The relative intensities of ^125I-TGF-β1 affinity-labeled TβR-I and TβR-II in cells treated without cholesterol were taken as 100%. The quantitative data from three analyses is shown (bottom).
The bracket indicates the locations of ^125I-TGF-β1 affinity-labeled TβR-I and TβR-II. The relative intensities of ^125I-TGF-β1-TβR-I and ^125I-TGF-β1-TβR-II complexes, which were quantified with a PhosphoImager, are plotted against TGF-β1 concentrations (bottom).
(§2) (A, B, C, D, E, F) Cells were treated with LDL (50 μg protein/ml), VLDL (5 μg protein/ml), HDL (50 μg protein/ml), lipoprotein (a) (10 μg/ml), fluvastatin (F; 1 μM), lovastatin (L; 1 μM), nystatin (Nys; 25 μg/ml), β-CD (β-CD; 8 mM), cholest-4-en-3-one (3-one; 50 μg/ml) or cholesterol (Chol; 50 μg/ml) alone or combination of two. After 1 hr at 37° C. or 16 hr at 37° C. (for fluvastatin and lovastatin), ^125I-TGF-β1 affinity labeling of cell-surface TGF-β receptors was performed at 0° C. ^125I-TGF-β1 affinity-labeled TβR-I and TβR-II were analyzed by 7.5% SDS-PAGE and autoradiography. The relative intensities of TβR-I and TβR-II were quantified with a PhosphoImager. The ratio of ^125I-TGF-β1 binding to TβR-II and TβR-I were estimated. The numbers above the lane sequence denote the ratio of TβR-II/TβR-I.
(G) Mv1Lu cells were treated with 50 μg/ml of cholesterol and cholesterol analogs/derivatives including 25-hydroxycholesterol, 7-dehydrocholesterol (7-DHC), 7-ketocholesterol, 7β, 8β-epoxycholesterol, 7β-hydroxycholesterol, and oxidized 7-dehydrocholesterol (oxy-7DHC). After 1 hr at 37° C., ^125I-TGF-β1 affinity labeling of TGF-β receptors was performed. ^125I-TGF-β1 affinity-labeled TβR-I and TβR-II were analyzed by 7.5% SDS-PAGE and autoradiography. The bracket indicates the locations of ^125I-TGF-β1-affinity-labeled TβR-I and TβR-II. The relative intensities of ^125I-TGF-β1 affinity-labeled TβR-I and TβR-II were determined by a PhosphoImager. The ratios of ^125I-TGF-β1 binding to TβR-II and TβR-I were estimated. The numbers above the lane sequence denote the ratio of TβR-II/TβR-I.
(§3) After cross-linking, cell lysates were analyzed by 7.5% SDS-PAGE and autoradiography or quantified by a PhosphoImager. For all experiments, cholesterol or cholesterol derivatives were prepared as the stock solution with a concentration of 25 mg/ml in ethanol. The final concentration of ethanol in the medium was 0.2% (by vol.).

TβR-I and TβR-II [2] = test: 125I-TGF-β1 affinity labeling, BAEC; assay type: cell-based, bovine; details: 1 μM, 37° C. 16 hr; BAEC cells; 2.47 untreated
Protocol: as §1, §2, §3

TβR-I and TβR-II [3] = test: 125I-TGF-β1 affinity labeling, CHO-K1 cells; assay type: cell-based, Chinese hamster; details: 1 μM, 37° C. 16 hr, 0.12 untreated
Protocol: as §2
as §3, with “vol.). […]” for “vol.).”

TβR-I and TβR-II [4] = test: Western blot of TβR-I and TβR-II protein levels, Mv1Lu cells; assay type: cell-based, mink; details: 37° C. for 16 hr; versus cholesterol-treated and control cells
Protocol: Cells grown to near confluence on 12-well cluster dishes were treated with cholesterol or LDL in serum-free DMEM (vol.=0.5 ml/well) at 37° C. for 1 hr. The treated cells were further incubated with 50 or 100 pM TGF-β1 at 37° C. for 30 min (for determining Smad2 phosphorylation) or for 2 hr (for determining TβR-II). Treated cells were lysed and cell lysates were analyzed by 7.5% SDS-PAGE and Western blot analysis using anti-Smad2, anti-P-Smad2, anti-caveolin-1, anti-TβR-I (alk5) or anti-TβR-II antibodies as described previously (30). The antigens on the blots were visualized by using horseradish peroxidase-conjugated anti-rabbit IgG antibody and the ECL system as described (30).
To determine if cholesterol suppresses TGF-β responsiveness by decreasing the ratio of TGF-β1 binding to TβR-II and TβR-I, we first determined the time course of the effect of cholesterol treatment on the ratio of ^125I-TGF-β1 binding to TβR-II and TβR-I in Mv1Lu cells. These cells were treated with 50 μg/ml cholesterol at 37° C. for several time periods. ^125I-TGF-β1 binding to TGF-β receptors was then determined by affinity labeling using the bifunctional cross-linking agent DSS (disuccinimidyl suberate) followed by 7.5% SDS-PAGE and autoradiography or quantified with a PhosphoImager. […] We then performed analysis of the effect of cholesterol treatment on TGF-β1 binding to TβR-I and TβR-II in several cell types. Mv1Lu, BAEC, and NRK cells were treated for 1 hr with increasing concentrations of cholesterol in the presence and absence of 0.2% β-cyclodextrin (β-CD, which forms water-soluble complexes with cholesterol) at 37° C. The binding of TGF-β1 to TβR-I and TβR-II in these cells was then determined by ^125I-TGF-β1 affinity labeling at 0° C.

- pEC50 (PAI-1 expression; stimulated by 50 pM TGF-β1, read-out: EC50 of enhancement of PAI-1 expression): 6.30
Compound: CC(C)n1c(/C=C/C(O)CC(O)CC(=O)O)c(-c2ccc(F)cc2)c2ccccc21 (stereo not drawn) [fluvastatin, reference compound]
- enhancement of PAI-1 expression (PAI-1 expression; 1 μM, 16 hr, 10 pM TGF-β1): 3 fold
- ratio of TβR-II/TβR-I (TβR-I and TβR-II [1]): 1.3
- ratio of TβR-II/TβR-I (TβR-I and TβR-II [2]): 2.91
- ratio of TβR-II/TβR-I (TβR-I and TβR-II [3]): 0.19
- increase of the total amount of TβR-II (TβR-I and TβR-II [4]): ~1.5 fold
